Laboratory results from patent US7396837B2, “Antitumoral analogs of lamellarins” (Pharma Mar, S.A.U., priority 2002, dated 2008).
Like-named read-outs stand apart in the source and are kept apart here.

Tests used:
Format in all cases: cell-based
[1] = SRB colorimetric cell growth inhibition assay, H-MEC-1; conditions: human, H-MEC-1, cell killing (cytotoxic effect), read-out: LC50 H-MEC-1
Text: (§1) A colorimetric type of assay, using sulforhodamine B (SRB) reaction has been adapted for a quantitative measurement of cell growth and viability (following the technique described by P. A. Skehan, et al., J. Natl. Cancer Inst. 1990, 82, 1107-1112).
(§2) This form of assay employs 96 well cell culture microplates of 9 mm diameter (T. Mosmann et al., J. of Immunological Methods 1983, 65, 55-63; G. T. Faircloth et al., J. of Tissue and Culture Methods 1988, 11, 201-205).
(§3) Most of the cell lines are obtained from American Type Culture Collection (ATCC) derived from different human cancer types.
(§4) The values for mean +/− SD of data from triplicate wells are calculated. Some parameters for cellular responses can be calculated: GI=growth inhibition, TGI=total growth inhibition (cytostatic effect) and LC=cell killing (cytotoxic effect).

H-MEC-1 = assay: as above; conditions: Homo sapiens
Text: as §1, §2, §3, §4

HT-29 = assay: SRB colorimetric cell growth inhibition assay, HT-29; conditions: Homo sapiens
Procedure, shortened: (§5)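 Continuous-exposure format, human tumour lines. SRB colour reaction quantifies growth/viability. Triplicate wells → mean ± SD → GI, TGI, LC.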

IGROV-ET = assay: SRB colorimetric cell growth inhibition assay, IGROV-ET (ET-743 resistant); conditions: Homo sapiens; for GI50: read-out: GI50 IGROV-ET; for CC50: read-out: LC50 IGROV-ET; for IC (TGI): read-out: TGI IGROV-ET
Procedure, shortened: as §5

LoVo-Dox = assay: SRB colorimetric cell growth inhibition assay, LoVo-Dox (MDR); conditions: Homo sapiens; for GI50: read-out: GI50 LOVO-DOX; for CC50: read-out: LC50 LOVO-DOX; for IC (TGI): read-out: TGI LOVO-DOX
Procedure, shortened: as §5

SKOV-3 = assay: SRB colorimetric cell growth inhibition assay, SKOV-3; conditions: Homo sapiens
Text: as §1, §2, §3, §4

DU-145 = assay: SRB colorimetric cell growth inhibition assay, DU-145; conditions: Homo sapiens
Procedure, shortened: as §5

K-562 = assay: SRB colorimetric cell growth inhibition assay, K-562; conditions: Homo sapiens
Procedure, shortened: as §5

IGROV = assay: SRB colorimetric cell growth inhibition assay, IGROV; conditions: Homo sapiens, IGROV; for GI50: read-out: GI50 IGROV; for CC50: read-out: LC50 IGROV; for IC (TGI): read-out: TGI IGROV
Procedure, shortened: as §5

A-549 = assay: SRB colorimetric cell growth inhibition assay, A-549; conditions: Homo sapiens
Procedure, shortened: as §5

LoVo = assay: SRB colorimetric cell growth inhibition assay, LoVo; conditions: Homo sapiens, LoVo; for GI50: read-out: GI50 LOVO; for CC50: read-out: LC50 LOVO; for IC (TGI): read-out: TGI LOVO
Procedure, shortened: as §5

LNCaP = assay: SRB colorimetric cell growth inhibition assay, LNCaP; conditions: Homo sapiens, LNCaP; for GI50: read-out: GI50 LN-caP; for CC50: read-out: LC50 LN-caP; for IC (TGI): read-out: TGI LN-caP
Procedure, shortened: as §5

SK-BR-3 = assay: SRB colorimetric cell growth inhibition assay, SK-BR-3; conditions: Homo sapiens
Procedure, shortened: as §5

PANC-1 = assay: SRB colorimetric cell growth inhibition assay, PANC-1; conditions: Homo sapiens
Procedure, shortened: as §5

SK-MEL-28 = assay: SRB colorimetric cell growth inhibition assay, SK-MEL-28; conditions: Homo sapiens
Procedure, shortened: as §5

[2] = cell killing (cytotoxic effect)
[3] = total growth inhibition (cytostatic effect)

## COc1cc(-c2c3n(c4c(=O)oc5cc(O)c(OC)cc5c24)CCc2c-3cc(OC)c(OC)c2O)ccc1O [Compound 1]
[1]; H-MEC-1 cells
  LC50 (concentration giving 50% net cell killing): 5.72 µM
H-MEC-1; HMEC-1, H-MEC-1, GI=growth inhibition, read-out: GI50 H-MEC-1
  GI50: 606 nM
H-MEC-1; HMEC-1, H-MEC-1, total growth inhibition (cytostatic effect), read-out: TGI H-MEC-1
  IC (TGI): 1.38 µM
HT-29; HT-29, HT-29, GI=growth inhibition, read-out: GI50 HT-29
  GI50: ≥ 18.8 µM
HT-29; HT-29, HT-29, cell killing (cytotoxic effect), read-out: LC50 HT-29
  CC50: 18.8 µM
HT-29; HT-29, HT-29, total growth inhibition (cytostatic effect), read-out: TGI HT-29
  IC (TGI): 18.8 µM
IGROV-ET; IGROV-ET, GI=growth inhibition
  GI50: 444 nM
IGROV-ET; IGROV-ET, cell killing (cytotoxic effect)
  CC50: 18.8 µM
IGROV-ET; IGROV-ET, total growth inhibition (cytostatic effect)
  IC (TGI): 1.2 µM
LoVo-Dox; LOVO-DOX, GI=growth inhibition
  GI50: 801 nM
LoVo-Dox; LOVO-DOX, cell killing (cytotoxic effect)
  CC50: 18.8 µM
LoVo-Dox; LOVO-DOX, total growth inhibition (cytostatic effect)
  IC (TGI): 7.13 µM
SKOV-3; SK-OV-3, SKOV-3, GI=growth inhibition, read-out: GI50 SKOV-3
  GI50: 13.7 µM
SKOV-3; SK-OV-3, SKOV-3, cell killing (cytotoxic effect), read-out: LC50 SKOV-3
  LC50 (concentration causing 50% net cell killing): 18.8 µM
SKOV-3; SK-OV-3, SKOV-3, total growth inhibition (cytostatic effect), read-out: TGI SKOV-3
  IC (TGI): 18.8 µM
DU-145; DU-145, DU-145, GI=growth inhibition, read-out: GI50 DU-145
  GI50: 8.24 µM
DU-145; DU-145, DU-145, cell killing (cytotoxic effect), read-out: LC50 DU-145
  CC50: 17 µM
DU-145; DU-145, DU-145, total growth inhibition (cytostatic effect), read-out: TGI DU-145
  IC (TGI): 11.8 µM
K-562; K562, K-562, GI=growth inhibition, read-out: GI50 K-562
  GI50: 815 nM
K-562; K562, K-562, cell killing (cytotoxic effect), read-out: LC50 K-562
  CC50: 2.97 µM
K-562; K562, K-562, total growth inhibition (cytostatic effect), read-out: TGI K-562
  IC (TGI): 2.11 µM
IGROV; GI=growth inhibition
  GI50: 493 nM
IGROV; [2]
  CC50: 18.8 µM
IGROV; [3]
  IC (TGI): 1.76 µM
A-549; A549, A-549, GI=growth inhibition, read-out: GI50 A-549
  GI50: ≥ 1880 nM
A-549; A549, A-549, cell killing (cytotoxic effect), read-out: LC50 A-549
  CC50: ≥ 1.88 µM
A-549; A549, A-549, total growth inhibition (cytostatic effect), read-out: TGI A-549
  IC (TGI): 1.88 µM
LoVo; GI=growth inhibition
  GI50: 11.8 µM
LoVo; [2]
  CC50: 18.8 µM
LoVo; [3]
  IC (TGI): 57.6 µM
LNCaP; LN-caP, GI=growth inhibition
  GI50: 277 nM
LNCaP; LN-caP, cell killing (cytotoxic effect)
  CC50: 7.85 µM
LNCaP; LN-caP, total growth inhibition (cytostatic effect)
  IC (TGI): 1.44 µM
SK-BR-3; SK-BR-3, SK-BR-3, GI=growth inhibition, read-out: GI50 SK-BR-3
  GI50: 2370 nM
SK-BR-3; SK-BR-3, SK-BR-3, cell killing (cytotoxic effect), read-out: LC50 SK-BR-3
  CC50: 18.8 µM
SK-BR-3; SK-BR-3, SK-BR-3, total growth inhibition (cytostatic effect), read-out: TGI SK-BR-3
  IC (TGI): 10.9 µM
PANC-1; PANC-1, PANC-1, GI=growth inhibition, read-out: GI50 PANC-1
  GI50: 2200 nM
PANC-1; PANC-1, PANC-1, cell killing (cytotoxic effect), read-out: LC50 PANC-1
  CC50: 18.8 µM
PANC-1; PANC-1, PANC-1, total growth inhibition (cytostatic effect), read-out: TGI PANC-1
  IC (TGI): 7.94 µM
SK-MEL-28; SK-MEL-28, MEL-28, GI=growth inhibition, read-out: GI50 MEL-28
  GI50: 2240 nM
SK-MEL-28; SK-MEL-28, MEL-28, cell killing (cytotoxic effect), read-out: LC50 MEL-28
  CC50: 11.3 µM
SK-MEL-28; SK-MEL-28, MEL-28, total growth inhibition (cytostatic effect), read-out: TGI MEL-28
  IC (TGI): 5.04 µM

## COc1cc(-c2c3c4cc(OC)c(O)cc4oc(=O)c3n3ccc4c(O)c(OC)c(OC)cc4c23)ccc1O [Compound 2]
[1]
  LC50 (concentration giving 50% net cell killing): ≥ 18.9 µM
H-MEC-1; HMEC-1, read-out: GI50 H-MEC-1
  GI50: 665 nM
H-MEC-1; HMEC-1, read-out: TGI H-MEC-1
  IC (TGI): 18.9 µM
HT-29; HT-29, read-out: GI50 HT-29
  GI50: 8.31 µM
HT-29; HT-29, read-out: LC50 HT-29
  CC50: 18.9 µM
HT-29; HT-29, read-out: TGI HT-29
  IC (TGI): 18.9 µM
IGROV-ET
  GI50: 1980 nM
  CC50: ≥ 18.9 µM
  IC (TGI): 8.12 µM
LoVo-Dox
  GI50: 604 nM
  CC50: 18.9 µM
  IC (TGI): 3.83 µM
SKOV-3; SK-OV-3, read-out: GI50 SKOV-3
  GI50: 0.14 µM
SKOV-3; SK-OV-3, read-out: LC50 SKOV-3
  LC50 (concentration causing 50% net cell killing): ≥ 18.9 µM
SKOV-3; SK-OV-3, read-out: TGI SKOV-3
  IC (TGI): 5.1 µM
DU-145; DU-145, read-out: GI50 DU-145
  GI50: 0.064 µM
DU-145; DU-145, read-out: LC50 DU-145
  CC50: ≥ 18.9 µM
DU-145; DU-145, read-out: TGI DU-145
  IC (TGI): 0.14 µM
K-562; K562, read-out: GI50 K-562
  GI50: 117 nM
K-562; K562, read-out: LC50 K-562
  CC50: 18.9 µM
K-562; K562, read-out: TGI K-562
  IC (TGI): 2.25 µM
IGROV
  GI50: 880 nM
  CC50: ≥ 18.9 µM
  IC (TGI): 5.17 µM
A-549; A549, read-out: GI50 A-549
  GI50: 674 nM
A-549; A549, read-out: LC50 A-549
  CC50: 18.9 µM
A-549; A549, read-out: TGI A-549
  IC (TGI): 18.9 µM
LoVo
  GI50: 0.398 µM
  CC50: 16 µM
  IC (TGI): 3.02 µM
LNCaP
  GI50: 72.7 nM
  CC50: 1.44 µM
  IC (TGI): 0.398 µM
SK-BR-3; SK-BR-3, read-out: GI50 SK-BR-3
  GI50: 314 nM
SK-BR-3; SK-BR-3, read-out: LC50 SK-BR-3
  CC50: ≥ 18.8 µM
SK-BR-3; SK-BR-3, read-out: TGI SK-BR-3
  IC (TGI): 2.36 µM
PANC-1; PANC-1, read-out: GI50 PANC-1
  GI50: 988 nM
PANC-1; PANC-1, read-out: LC50 PANC-1
  CC50: 18.9 µM
PANC-1; PANC-1, read-out: TGI PANC-1
  IC (TGI): 6.97 µM
SK-MEL-28; SK-MEL-28, read-out: GI50 MEL-28
  GI50: 302 nM
SK-MEL-28; SK-MEL-28, read-out: LC50 MEL-28
  CC50: ≥ 18.9 µM
SK-MEL-28; SK-MEL-28, read-out: TGI MEL-28
  IC (TGI): 3.66 µM
